According to patent US12139471B2, “NLRP3 inflammasome inhibitors” (Novartis AG, priority 2019, dated 2024):
Counter-ions that a name gives are not always drawn.

target: T1, NLRP3 inflammasome (Homo sapiens, UniProt Q96P20); experiment: IL-1β secretion assay (nigericin-activated, PMA-differentiated THP-1 cells, HTRF); format: cell-based; settings: IL-1β IC50, PMA-differentiated THP-1 cells; compound 1 hour, then 15 μM nigericin, 3 hours; IL-1β by HTRF
T1 construct: host or cells: THP-1 cells, PMA-differentiated
T1 sequence (Q96P20 whole entry): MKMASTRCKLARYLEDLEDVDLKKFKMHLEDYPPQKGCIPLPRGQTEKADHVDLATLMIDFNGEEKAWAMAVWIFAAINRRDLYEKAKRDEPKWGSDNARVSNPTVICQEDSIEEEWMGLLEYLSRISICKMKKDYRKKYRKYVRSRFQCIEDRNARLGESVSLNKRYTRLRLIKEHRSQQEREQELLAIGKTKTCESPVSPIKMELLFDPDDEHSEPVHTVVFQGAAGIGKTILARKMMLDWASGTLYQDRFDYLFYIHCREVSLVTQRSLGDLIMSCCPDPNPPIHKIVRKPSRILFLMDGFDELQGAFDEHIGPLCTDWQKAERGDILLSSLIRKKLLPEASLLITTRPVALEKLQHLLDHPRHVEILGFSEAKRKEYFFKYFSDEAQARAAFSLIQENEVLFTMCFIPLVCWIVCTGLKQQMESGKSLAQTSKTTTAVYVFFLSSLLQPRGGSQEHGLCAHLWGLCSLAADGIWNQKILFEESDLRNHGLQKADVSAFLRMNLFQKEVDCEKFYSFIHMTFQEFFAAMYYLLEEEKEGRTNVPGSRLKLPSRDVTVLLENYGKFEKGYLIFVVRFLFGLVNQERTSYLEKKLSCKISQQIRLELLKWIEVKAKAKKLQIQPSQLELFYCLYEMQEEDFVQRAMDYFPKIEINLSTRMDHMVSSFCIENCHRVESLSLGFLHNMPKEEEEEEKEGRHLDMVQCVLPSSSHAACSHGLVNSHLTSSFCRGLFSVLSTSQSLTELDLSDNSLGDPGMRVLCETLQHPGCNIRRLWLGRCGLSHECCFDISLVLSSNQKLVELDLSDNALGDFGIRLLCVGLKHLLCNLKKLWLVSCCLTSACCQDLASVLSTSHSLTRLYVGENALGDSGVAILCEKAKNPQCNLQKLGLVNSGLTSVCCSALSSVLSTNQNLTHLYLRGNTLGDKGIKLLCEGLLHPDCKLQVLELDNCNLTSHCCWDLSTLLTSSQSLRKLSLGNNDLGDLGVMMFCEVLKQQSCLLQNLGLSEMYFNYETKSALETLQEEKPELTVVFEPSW
Procedure: 10 μL supernatant was removed, and IL-1β levels were monitored using an HTRF assay (CisBio, #62IL1PEC) according to manufacturers' instructions. Viability and pyroptosis was monitored with the addition of PrestoBlue cell viability reagent (Life Technologies, #A13261) directly to the cell culture plate.
IC50 values were calculated from the plot of percentage of inhibition versus the inhibitor concentration by a logistics fit according to: y=A2+(A1−A2)/(1+(x/IC50)^p) where y is the %-inhibition at the inhibitor concentration, x. A1 is the lowest inhibition value, i.e. 0%, and A2 the maximum inhibition value, i.e. 100%. The exponent, p, is the Hill coefficient. The curve fitting was conducted with an internally developed software suite.
NLRP3-dependent IL-1β secretion was stimulated in PMA-differentiated THP-1 cells by the addition of nigericin, and cytokines were measured in the […] after 3 hours. As discussed above, activation of the NLRP3 inflammasome requires both an NF-kB-dependent priming step and the addition of a NLRP3 activator.

How did the IC50 turn out when `Cc1cc(C(F)(F)F)cc(O)c1-c1ccc(NC2CCC3CCC2N3C)nn1` (single isomer, unassigned) [Ex 85b] was run?
Its IC50 is 1.3 nM.

Which IC50 does the source give for `Cc1cc(C(F)(F)F)cc(O)c1-c1ccc(NC2CCC3CCC2N3CCO)nn1` (single isomer, unassigned) [Ex 86b] here?
Its IC50 is 1.8 nM.

same assay, conditions: PMA-differentiated THP-1 cells; compound 1 hour, then 15 μM nigericin, 3 hours; IL-1β by HTRF; read-out: IL-1β IC50

`Cc1cc(C(F)(F)F)cc(O)c1-c1ccc(NCC2COCCN2C)nn1` (racemic) [Ex 77, (rac)-3-Methyl-2-(6-(((4-methylmorpholin-3-yl)methyl)amino)pyridazin-3-yl)-5-(trifluoromethyl)phenol] was tested. Which IC50 did it give?
Its IC50 is 61.9 nM.

Which IC50 does the source give for `Cc1cc(C(F)(F)F)cc(O)c1-c1ccc(N[C@@H]2CCC[C@H]2O)nn1` (relative stereo) [Ex 24, (trans)-2-(6-((2-Hydroxycyclopentyl)amino)pyridazin-3-yl)-3-methyl-5-(trifluoromethyl)phenol] here?
The IC50 was 120 nM.

How did the IC50 turn out when `Cc1cc(C(F)(F)F)cc(O)c1-c1ccc(N[C@@H]2CCCN3CCC[C@H]23)nn1` (single isomer, unassigned) [Ex 83a] was run?
The IC50 was 0.8 nM.

With `Cc1cc(C(F)(F)F)cc(O)c1-c1ccc(N[C@H]2CCCN3CCC[C@@H]23)nn1` (single isomer, unassigned) [Ex 83b] as the compound, how does the IC50 read?
Its IC50 is 69.4 nM.

Which IC50 does the source give for `Cc1cc(C(F)(F)F)cc(O)c1-c1ccc(NC[C@H]2CCCCN2CCO)nn1` (single isomer, unassigned) [Ex 84a] here?
Its IC50 is 42.5 nM.

For `Cc1cc(C(F)(F)F)cc(O)c1-c1ccc(NC[C@@H]2CCCCN2CCO)nn1` (single isomer, unassigned) [Ex 84b], which IC50 is on record?
Its IC50 is 53.3 nM.

Which IC50 does the source give for `Cc1cc(C(F)(F)F)cc(O)c1-c1ccc(NC2CCC3CCC2N3C)nn1` (single isomer, unassigned) [Ex 85a] here?
Its IC50 is 148 nM.

Which IC50 does the source give for `Cc1cc(C(F)(F)F)cc(O)c1-c1ccc(NC2CCC3CCC2N3CCO)nn1` (single isomer, unassigned) [Ex 86a] here?
Its IC50 is 175 nM.

How did the IC50 turn out when `Cc1cc(C(F)(F)F)cc(O)c1-c1ccc(NC[C@](C)(O)CO)nn1` (single isomer, unassigned) [Ex 88a] was run?
Its IC50 is 62.3 nM.

`Cc1cc(C(F)(F)F)cc(O)c1-c1ccc(NC[C@@](C)(O)CO)nn1` (single isomer, unassigned) [Ex 88b] was tested. Which IC50 did it give?
Its IC50 is 60.5 nM.

Which IC50 does the source give for `Cc1cc(C(F)(F)F)cc(O)c1-c1ccc(N[C@H]2CC[C@H](O)[C@@H]2O)nn1` (single isomer, unassigned) [Ex 89a] here?
Its IC50 is 59.7 nM.

How did the IC50 turn out when `Cc1cc(C(F)(F)F)cc(O)c1-c1ccc(N[C@@H]2CC[C@@H](O)[C@H]2O)nn1` (single isomer, unassigned) [Ex 89b] was run?
Its IC50 is 182 nM.

Which IC50 does the source give for `Cc1cc(C(F)(F)F)cc(O)c1-c1ccc(NC[C@@H](O)C(C)C)nn1` (single isomer, unassigned) [Ex 90a] here?
The IC50 was 64.2 nM.

With `Cc1cc(C(F)(F)F)cc(O)c1-c1ccc(NC[C@H](O)C(C)C)nn1` (single isomer, unassigned) [Ex 90b] as the compound, how does the IC50 read?
The IC50 was 115 nM.

Which IC50 does the source give for `Cc1cc(C(F)(F)F)cc(O)c1-c1ccc(N[C@H]2C[C@@](C)(O)C2)nn1` [Ex 2, 2-(6-(((cis)-3-Hydroxy-3-methylcyclobutyl)amino)pyridazin-3-yl)-3-methyl-5-(trifluoromethyl)phenol] here?
Its IC50 is 10.2 nM.

How did the IC50 turn out when `Cc1cc(C(F)(F)F)cc(O)c1-c1ccc(N[C@@H]2CCC[C@H](O)C2)nn1` [Ex 3, 2-(6-(((1R,3S)-3-Hydroxycyclohexyl)amino)pyridazin-3-yl)-3-methyl-5-(trifluoromethyl)phenol] was run?
Its IC50 is 25.5 nM.

How did the IC50 turn out when `CCN1CCC[C@H]1CNc1ccc(-c2c(C)cc(C(F)(F)F)cc2O)nn1` [Ex 8, (S)-2-(6-(((1-Ethylpyrrolidin-2-yl)methyl)amino)pyridazin-3-yl)-3-methyl-5-(trifluoromethyl)phenol] was run?
The IC50 was 24.1 nM.

`Cc1cc(C(F)(F)F)cc(O)c1-c1ccc(NCC(O)(C(F)(F)F)C(F)(F)F)nn1` [Ex 10, 3-Methyl-2-(6((3,3,3-trifluoro-2-hydroxy-2-(trifluoromethyl)propyl)amino)pyridazin-3-yl)-5-(trifluoromethyl)phenol] was tested. Which IC50 did it give?
The IC50 was 349 nM.

`Cc1cc(C(F)(F)F)cc(O)c1-c1ccc(NC[C@H]2CCCN2)nn1` [Ex 14, (R)-3-Methyl-2-(6-((pyrrolidin-2-ylmethyl)amino)pyridazin-3-yl)-5-(trifluoromethyl)phenol] was tested. Which IC50 did it give?
Its IC50 is 85.7 nM.

How did the IC50 turn out when `Cc1cc(C(F)(F)F)cc(O)c1-c1ccc(NCC(C)(C)O)nn1` [Ex 15, 2-(6-((2-Hydroxy-2-methylpropyl)amino)pyridazin-3-yl)-3-methyl-5-(trifluoromethyl)phenol] was run?
The IC50 was 85.9 nM.

`Cc1cc(C(F)(F)F)cc(O)c1-c1ccc(NCC(C)(C)N(C)C)nn1` [Ex 16, 2-(6-((2-(Dimethylamino)-2-methylpropyl)amino)pyridazin-3-yl)-3-methyl-5-(trifluoromethyl)phenol] was tested. Which IC50 did it give?
The IC50 was 36.3 nM.

For `Cc1cc(C(F)(F)F)cc(O)c1-c1ccc(OCC(C)(C)O)nn1` [Ex 19, 2-(6-(2-Hydroxy-2-methylpropoxy)pyridazin-3-yl)-3-methyl-5-(trifluoromethyl)phenol], which IC50 is on record?
Its IC50 is 93.6 nM.

Which IC50 does the source give for `Cc1cc(C(F)(F)F)cc(O)c1-c1ccc(NC[C@H]2CCCCN2)nn1` [Ex 20, (R)-3-Methyl-2-(6-((piperidin-2-ylmethyl)amino)pyridazin-3-yl)-5-(trifluoromethyl)phenol] here?
The IC50 was 82.3 nM.

Which IC50 does the source give for `Cc1cc(C(F)(F)F)cc(O)c1-c1ccc(NC[C@@H]2CCCCN2)nn1` [Ex 21, (S)-3-Methyl-2-(6-((piperidin-2-ylmethyl)amino)pyridazin-3-yl)-5-(trifluoromethyl)phenol] here?
Its IC50 is 48.4 nM.

Which IC50 does the source give for `Cc1cc(C(F)(F)F)cc(O)c1-c1ccc(NC[C@@H]2CC(F)(F)CN2)nn1` [Ex 22, (S)-2-(6-(((4,4-Difluoropyrrolidin-2-yl)methyl)amino)pyridazin-3-yl)-3-methyl-5-(trifluoromethyl)phenol] here?
Its IC50 is 80.7 nM.

`Cc1cc(C(F)(F)F)cc(O)c1-c1ccc(NC[C@H]2CC(F)(F)CN2)nn1` [Ex 23, (R)-2-(6-(((4,4-Difluoropyrrolidin-2-yl)methyl)amino)pyridazin-3-yl)-3-methyl-5-(trifluoromethyl)phenol] was tested. Which IC50 did it give?
The IC50 was 93.4 nM.

For `Cc1cc(C(F)(F)F)cc(O)c1-c1cc(C(F)(F)F)c(NCCO)nn1` [Ex 26, 2-(6-((2-Hydroxyethyl)amino)-5-(trifluoromethyl)pyridazin-3-yl)-3-methyl-5-(trifluoromethyl)phenol], which IC50 is on record?
The IC50 was 165 nM.

Which IC50 does the source give for `Cc1cc(C(F)(F)F)cc(O)c1-c1ccc(NCc2ccccn2)nn1` [Ex 28, 3-Methyl-2-(6-((pyridin-2-ylmethyl)amino)pyridazin-3-yl)-5-(trifluoromethyl)phenol] here?
Its IC50 is 288 nM.

For `Cc1cc(C(F)(F)F)cc(O)c1-c1ccc(NCC(C)(C)N)nn1` [Ex 29, 2-(6-((2-Amino-2-methylpropyl)amino)pyridazin-3-yl)-3-methyl-5-(trifluoromethyl)phenol], which IC50 is on record?
The IC50 was 169 nM.

With `CC(C)(O)CNc1ccc(-c2c(O)cc(C(F)(F)F)cc2Cl)nn1` [Ex 30, 3-Chloro-2-(6-((2-hydroxy-2-methylpropyl)amino)pyridazin-3-yl)-5-(trifluoromethyl)phenol] as the compound, how does the IC50 read?
The IC50 was 214 nM.

For `Oc1cc(C(F)(F)F)cc(Cl)c1-c1ccc(N[C@H]2C[C@@H](O)C2)nn1` [Ex 31, 3-Chloro-2-(6-((cis-3-hydroxycyclobutyl)amino)pyridazin-3-yl)-5-(trifluoromethyl)phenol], which IC50 is on record?
Its IC50 is 167 nM.

How did the IC50 turn out when `Oc1cc(C(F)(F)F)cc(Cl)c1-c1ccc(N[C@H]2C[C@H](O)C2)nn1` [Ex 32, 3-Chloro-2-(6-((trans-3-hydroxycyclobutyl)amino)pyridazin-3-yl)-5-(trifluoromethyl)phenol] was run?
Its IC50 is 218 nM.

`Cc1ncccc1CNc1ccc(-c2c(O)cc(C(F)(F)F)cc2Cl)nn1` [Ex 34, 3-Chloro-2-(6-(((2-methylpyridin-3-yl)methyl)amino)pyridazin-3-yl)-5-(trifluoromethyl)phenol] was tested. Which IC50 did it give?
Its IC50 is 496 nM.

Which IC50 does the source give for `Cc1ncccc1CNc1ccc(-c2c(O)cc(Cl)cc2C(F)(F)F)nn1` [Ex 35, 5-Chloro-2-(6-(((2-methylpyridin-3-yl)methyl)amino)pyridazin-3-yl)-3-(trifluoromethyl)phenol] here?
The IC50 was 243 nM.

`OCCNc1ccc(-c2c(O)cc(C(F)(F)F)cc2Cl)nn1` [Ex 37, 3-Chloro-2-(6-((2-hydroxyethyl)amino)pyridazin-3-yl)-5-(trifluoromethyl)phenol] was tested. Which IC50 did it give?
Its IC50 is 381 nM.

For `Cc1cc(C(F)(F)F)cc(O)c1-c1ccc(Nc2cncnc2)nn1` [Ex 43, 3-Methyl-2-(6-(pyrimidin-5-ylamino)pyridazin-3-yl)-5-(trifluoromethyl)phenol], which IC50 is on record?
The IC50 was 281 nM.

For `Cc1cc(C(F)(F)F)cc(O)c1-c1ccc(NC2(C)CCCN(C)C2)nn1` (stereo not drawn) [Ex 52, 2-(6-((1,3-Dimethylpiperidin-3-yl)amino)pyridazin-3-yl)-3-methyl-5-(trifluoromethyl)phenol TFA-salt], which IC50 is on record?
The IC50 was 186 nM.

How did the IC50 turn out when `Cc1cc(-c2c(C)cc(C(F)(F)F)cc2O)nnc1N[C@H]1C[C@@](C)(O)C1` [Ex 54, 2-(6-(((cis)-3-Hydroxy-3-methylcyclobutyl)amino)-5-methylpyridazin-3-yl)-3-methyl-5-(trifluoromethyl)phenol] was run?
The IC50 was 11.8 nM.

`Cc1cc(N[C@H]2C[C@@](C)(O)C2)nnc1-c1ccc(C(F)(F)F)cc1O` [Ex 55, 2-(6-(((cis)-3-Hydroxy-3-methylcyclobutyl)amino)-4-methylpyridazin-3-yl)-5-(trifluoromethyl)phenol] was tested. Which IC50 did it give?
Its IC50 is 45.8 nM.

`Cc1cc(C(F)(F)F)cc(O)c1-c1cc(C(F)(F)F)c(N[C@H]2C[C@@](C)(O)C2)nn1` [Ex 56, 2-(6-(((cis)-3-Hydroxy-3-methylcyclobutyl)amino)-5-(trifluoromethyl)pyridazin-3-yl)-3-methyl-5-(trifluoromethyl)phenol] was tested. Which IC50 did it give?
Its IC50 is 8.3 nM.
